Like-named read-outs stand apart in the source and are kept apart here.
How the values were obtained:
[1] = Reproductive toxicity study, rats; type: in vivo; conditions: oral 200 mg/kg for 10 days
From the text: (§1) Toxicology summary. In mice and rats, the maximum fexinidazole (FEX) dose after oral administration is 10 g/kg of body weight. […] Finally, as regards PK, labeled FEX and its metabolites were excreted within 3 days in the feces (52-58%) and urine (36-40%).

[2] = Multiple dosing study in dogs: systemic exposure (plasma) to fexinidazole and its metabolites; type: in vivo, dog; conditions: for concentration at 0 h / concentration at 0.5 h / concentration at 1 h / concentration at 2 h / concentration at 4 h / concentration at 8 h / concentration at 24 h / Cmax / Tmax / AUC(0-t): dog, plasma; for concentration at 0 h / concentration at 0.5 h / concentration at 1 h / concentration at 2 h / concentration at 4 h / concentration at 8 h / concentration at 24 h: oral, read-out: Average plasma concentrations of fexinidazole; for concentration at 2 h: Day 1, 2 hours; for concentration at 4 h: Day 1, 4 hours; for concentration at 8 h: Day 1, 8 hours; for concentration at 24 h: Day 1, 24 hours; for Cmax / Tmax / AUC(0-t): po; for AUC(0-t): read-out: AUC0-t (last)
Protocol: In an embodiment, the fexinidazole may be administered to the canine as an aqueous oral suspension, comprising 5% TWEEN 80 and 0.5% Methyl cellulose 400 cP (METHOCEL). Provided in this format, fexinidazole suspensions of 5, 20, and 80 mg fexinidazole/mL may be prepared such that 10 mL of each concentration contains 50, 200, and 800 mg fexinidazole, respectively.
(§2) Moreover, inventors expect that a wide variety of dosing regimens are now available to the skilled person to achieve the necessary and sufficient fexinidazole plasma levels. For example, and as further outlined in the Examples below, any dosing regimen that produces substantially similar fexinidazole plasma levels, as compared to those levels produced by giving the dogs about 60 mg/kg/day for about twenty-eight days, is expected to substantially or completely eliminate the Leishmania parasites. Table 1 presents the systemic fexinidazole exposure following dosing of dogs with 50, 200, and 800 mg/kg/day.

[3] = tested on: Leishmania donovani amastigotes grown in macrophages; conditions: Wyllie S et al., 2012; cited from earlier work
[4] = Excretion and metabolites of labeled FEX; type: in vivo
From the text: as §1

[5] = Toxicology studies in beagles, 90 days (13 weeks); type: in vivo; conditions: daily doses up to 125 mg/kg/day for 90 days (13 weeks)
From the text: as §1

[6] = Toxicology summary: maximum dose after oral administration, mice; type: in vivo
From the text: as §1

L. donovani = conditions: mice; Wyllie, Sci Transl. Med 4, 119, 2012; cited from earlier work
[7] = Multiple dosing study in dogs, 28 consecutive days oral: tolerability; type: in vivo, dog; conditions: for Effects observed: dog, in vivo
From the text: In a particular embodiment, the sufficient fexinidazole plasma levels are achieved by administering oral veterinary compositions comprising an effective amount of fexinidazole over a period of time of at least about twenty days. The fexinidazole may be administered according to any effective regimen, including, but not solely, once weekly, twice weekly, once daily, or twice daily. All that is required is that dosing regimen maintains a sufficient fexinidazole plasma level, over a sufficient period of time, to substantially or completely eliminate or cure the Leishmania infections.
as §2

bone marrow micronucleus = assay: Mammalian cell mutagenicity, bone marrow micronucleus study; type: in vivo; conditions: all test concentrations (500, 1000 and 2000 mg/kg)
From the text: as §1

[8] = Reproductive toxicity study, rabbits; type: in vivo; conditions: oral 40 mg/kg for 13 days
From the text: as §1

[9] = 50 mg/kg/day, 50 mg/kg/day oral
[10] = 200 mg/kg/day, 200 mg/kg/day oral
[11] = female, 50 mg/kg/day, Female Dog, 50 mg/kg/day oral, D1, mean ± SD, n = 3
[12] = female, 50 mg/kg/day, Female Dog, 50 mg/kg/day oral, D14, mean ± SD, n = 3
[13] = female, 50 mg/kg/day, Female Dog, 50 mg/kg/day oral, D28, mean ± SD, n = 3
[14] = female, 200 mg/kg/day, Female Dog, 200 mg/kg/day oral, D1, mean ± SD, n = 3
[15] = female, 200 mg/kg/day, Female Dog, 200 mg/kg/day oral, D14, mean ± SD, n = 3
[16] = female, 200 mg/kg/day, Female Dog, 200 mg/kg/day oral, D28, mean ± SD, n = 3
[17] = female, 800 mg/kg/day, Female Dog, 800 mg/kg/day oral, D1, mean ± SD, n = 5
[18] = female, 800 mg/kg/day, Female Dog, 800 mg/kg/day oral, D14, mean ± SD, n = 5
[19] = female, 800 mg/kg/day, Female Dog, 800 mg/kg/day oral, D28, mean ± SD, n = 5
[20] = male, 50 mg/kg/day, Male Dog, 50 mg/kg/day oral, D1, mean ± SD, n = 3
[21] = male, 50 mg/kg/day, Male Dog, 50 mg/kg/day oral, D14, mean ± SD, n = 3
[22] = male, 50 mg/kg/day, Male Dog, 50 mg/kg/day oral, D28, mean ± SD, n = 3
[23] = male, 200 mg/kg/day, Male Dog, 200 mg/kg/day oral, D1, mean ± SD, n = 3
[24] = male, 200 mg/kg/day, Male Dog, 200 mg/kg/day oral, D14, mean ± SD, n = 3
[25] = male, 200 mg/kg/day, Male Dog, 200 mg/kg/day oral, D28, mean ± SD, n = 3
[26] = male, 800 mg/kg/day, Male Dog, 800 mg/kg/day oral, D1, mean ± SD, n = 5
[27] = male, 800 mg/kg/day, Male Dog, 800 mg/kg/day oral, D14, mean ± SD, n = 5
[28] = male, 800 mg/kg/day, Male Dog, 800 mg/kg/day oral, D28, mean ± SD, n = 5
[29] = labeled FEX and its metabolites, within 3 days

CSc1ccc(OCc2ncc([N+](=O)[O-])n2C)cc1 [Fexinidazole, fexinidazole]
embryotoxic effects [1]: no embryotoxic effects | Average plasma concentrations of fexinidazole ([2]; 50 mg/kg/day oral, Day 14, 2 hours): 26.8 ng/mL | Average plasma concentrations of fexinidazole ([2]; 50 mg/kg/day oral, Day 14, 4 hours): ~9 ng/mL | Average plasma concentrations of fexinidazole ([2]; 50 mg/kg/day oral, Day 14, 8 hours): <5 ng/mL | Average plasma concentrations of fexinidazole ([2]; 50 mg/kg/day oral, Day 14, 24 hours): <5 ng/mL | Average plasma concentrations of fexinidazole ([2]; 50 mg/kg/day oral, Day 28, 0 hours): <5 ng/mL | Average plasma concentrations of fexinidazole ([2]; 50 mg/kg/day oral, Day 28, 1 hour): 28.3 ng/mL | Average plasma concentrations of fexinidazole ([2]; 50 mg/kg/day oral, Day 28, 2 hours): 17.5 ng/mL | Average plasma concentrations of fexinidazole ([2]; 50 mg/kg/day oral, Day 28, 4 hours): 14.3 ng/mL | Average plasma concentrations of fexinidazole ([2]; 50 mg/kg/day oral, Day 28, 8 hours): ~5 ng/mL | Average plasma concentrations of fexinidazole ([2]; 50 mg/kg/day oral, Day 28, 24 hours): <5 ng/mL | Average plasma concentrations of fexinidazole ([2]; 200 mg/kg/day oral, Day 14, 2 hours): 70.2 ng/mL | Average plasma concentrations of fexinidazole ([2]; 200 mg/kg/day oral, Day 14, 4 hours): 27.6 ng/mL | Average plasma concentrations of fexinidazole ([2]; 200 mg/kg/day oral, Day 14, 8 hours): 13.5 ng/mL | Average plasma concentrations of fexinidazole ([2]; 200 mg/kg/day oral, Day 14, 24 hours): 10.2 ng/mL | Average plasma concentrations of fexinidazole ([2]; 200 mg/kg/day oral, Day 28, 0 hours): <5 ng/mL | Average plasma concentrations of fexinidazole ([2]; 200 mg/kg/day oral, Day 28, 1 hour): 65.4 ng/mL | Average plasma concentrations of fexinidazole ([2]; 200 mg/kg/day oral, Day 28, 2 hours): 44.6 ng/mL | Average plasma concentrations of fexinidazole ([2]; 200 mg/kg/day oral, Day 28, 4 hours): 23.5 ng/mL | Average plasma concentrations of fexinidazole ([2]; 200 mg/kg/day oral, Day 28, 8 hours): 12.4 ng/mL | Average plasma concentrations of fexinidazole ([2]; 200 mg/kg/day oral, Day 28, 24 hours): 12.4 ng/mL | concentration at 0 h ([2]; 50 mg/kg/day, 50 mg/kg/day oral, Day 1, 0 hours): < 5 ng/mL | concentration at 0.5 h ([2]; 50 mg/kg/day, 50 mg/kg/day oral, Day 1, 0.5 hours): 34.5 ng/mL | concentration at 1 h ([2]; 50 mg/kg/day, 50 mg/kg/day oral, Day 1, 1 hour): 30.3 ng/mL | concentration at 2 h [2, 9]: 23.8 ng/mL | concentration at 4 h [2, 9]: 12.6 ng/mL | concentration at 8 h [2, 9]: < 5 ng/mL | concentration at 24 h [2, 9]: < 5 ng/mL | concentration at 0 h ([2]; 50 mg/kg/day, 50 mg/kg/day oral, Day 14, 0 hours): < 5 ng/mL | concentration at 0.5 h ([2]; 50 mg/kg/day, 50 mg/kg/day oral, Day 14, 0.5 hours): 28.8 ng/mL | concentration at 1 h ([2]; 50 mg/kg/day, 50 mg/kg/day oral, Day 14, 1 hour): 29.5 ng/mL | concentration at 0 h ([2]; 200 mg/kg/day, 200 mg/kg/day oral, Day 1, 0 hours): < 5 ng/mL | concentration at 0.5 h ([2]; 200 mg/kg/day, 200 mg/kg/day oral, Day 1, 0.5 hours): 52.1 ng/mL | concentration at 1 h ([2]; 200 mg/kg/day, 200 mg/kg/day oral, Day 1, 1 hour): 61.3 ng/mL | concentration at 2 h [2, 10]: 45.9 ng/mL | concentration at 4 h [2, 10]: 22.6 ng/mL | concentration at 8 h [2, 10]: 9.9 ng/mL | concentration at 24 h [2, 10]: 13 ng/mL | concentration at 0 h ([2]; 200 mg/kg/day, 200 mg/kg/day oral, Day 14, 0 hours): 16.6 ng/mL | concentration at 0.5 h ([2]; 200 mg/kg/day, 200 mg/kg/day oral, Day 14, 0.5 hours): 53.4 ng/mL | concentration at 1 h ([2]; 200 mg/kg/day, 200 mg/kg/day oral, Day 14, 1 hour): 63.2 ng/mL | Metabolism ([2]; dogs, after single and repeated administration): extensively metabolized to the sulfone and sulfoxide derivatives | Cmax [2, 11]: 42.4 ± 10.6 ng/mL | Tmax [2, 11]: 1 ± 0.87 h | AUC(0-t) [2, 11]: 237 ± 105 ng·h/mL | Cmax [2, 12]: 41.9 ± 2.2 ng/mL | Tmax [2, 12]: 1.67 ± 0.58 h | AUC(0-t) [2, 12]: 246 ± 117 ng·h/mL | Cmax [2, 13]: 36.3 ± 15.1 ng/mL | Tmax [2, 13]: 1 h | AUC(0-t) [2, 13]: 87.1 ± 38.1 ng·h/mL | Cmax [2, 14]: 84.1 ± 36.7 ng/mL | Tmax [2, 14]: 1 h | AUC(0-t) [2, 14]: 454 ± 119 ng·h/mL | Cmax [2, 15]: 77.7 ± 50.8 ng/mL | Tmax [2, 15]: 2 h | AUC(0-t) [2, 15]: 443 ± 217 ng·h/mL | Cmax [2, 16]: 73 ± 12 ng/mL | Tmax [2, 16]: 1 h | AUC(0-t) [2, 16]: 377 ± 83.5 ng·h/mL | Cmax [2, 17]: 184 ± 75.6 ng/mL | Tmax [2, 17]: 1.2 ± 0.45 h | AUC(0-t) [2, 17]: 895 ± 437 ng·h/mL | Cmax [2, 18]: 152 ± 44 ng/mL | Tmax [2, 18]: 1.4 ± 0.55 h | AUC(0-t) [2, 18]: 1170 ± 309 ng·h/mL | Cmax [2, 19]: 101 ± 47.1 ng/mL | Tmax [2, 19]: 1 h | AUC(0-t) [2, 19]: 956 ± 378 ng·h/mL | Cmax [2, 20]: 31.2 ± 12.4 ng/mL | Tmax [2, 20]: 0.5 h | AUC(0-t) [2, 20]: 140 ± 147 ng·h/mL | Cmax [2, 21]: 26.5 ± 13 ng/mL | Tmax [2, 21]: 0.5 h | AUC(0-t) [2, 21]: 52.1 ± 29.4 ng·h/mL | Cmax [2, 22]: 20.3 ± 7.89 ng/mL | Tmax [2, 22]: 1 h | AUC(0-t) [2, 22]: 124 ± 67 ng·h/mL | Cmax [2, 23]: 54.9 ± 10.8 ng/mL | Tmax [2, 23]: 1 ± 0.87 h | AUC(0-t) [2, 23]: 419 ± 61.4 ng·h/mL | Cmax [2, 24]: 78.1 ± 23.5 ng/mL | Tmax [2, 24]: 1 ± 0.87 h | AUC(0-t) [2, 24]: 452 ± 41.1 ng·h/mL | Cmax [2, 25]: 57.9 ± 12.5 ng/mL | Tmax [2, 25]: 1 h | AUC(0-t) [2, 25]: 395 ± 15.8 ng·h/mL | Cmax [2, 26]: 100 ± 21.2 ng/mL | Tmax [2, 26]: 1.1 ± 0.55 h | AUC(0-t) [2, 26]: 776 ± 182 ng·h/mL | Cmax [2, 27]: 128 ± 56.9 ng/mL | Tmax [2, 27]: 1 h | AUC(0-t) [2, 27]: 929 ± 268 ng·h/mL | Cmax [2, 28]: 86.2 ± 38.5 ng/mL | Tmax [2, 28]: 1.2 ± 0.4 h | AUC(0-t) [2, 28]: 736 ± 141 ng·h/mL | activity against Leishmania donovani amastigotes grown in macrophages [3]: inactive | time to excretion of labeled FEX and its metabolites ([4]; feces and urine): ≤ 3 days | main metabolites ([4]; in vivo): the sulfoxide, the sulfone, and the corresponding phenolic fragments | excretion in the feces [4, 29]: 52-58% | excretion in the urine [4, 29]: 36-40% | adverse events (AEs) [5]: no observed adverse events | maximum dose after oral administration [6]: 10 g/kg of body weight | suppression of infection due to L. donovani (L. donovani): able to suppress infection | Effects observed ([7]; 200 mg/kg/day): no effects were observed | Effects observed ([7]; 800 mg/kg/day): only minor effects were observed | Tolerability ([7]; dogs, oral 50, 200 and 800 mg/kg/day for 28 consecutive days): well tolerated | mammalian cell mutagenicity, bone marrow micronucleus study (bone marrow micronucleus): negative | embryotoxic effects [8]: no embryotoxic effects
